Laboratory results: patent US6475985B1, “Nucleosides with antiviral and anticancer activity” (priority 1998, dated 2002)
Like-named read-outs stand apart in the source and are kept apart here. Each block holds one compound with its values, some of them ahead of it.

Legend:
[1] = Test F: stability in human plasma; format: in vitro ADME; details: 37 C
in vitro = details: cell media
[2] = tested on: CEM T-cell leukemia cells; assay: Test G: activity against CEM T-cell leukemia cells; format: cell-based
Description: (§1) The activity of representative compounds of formula VII against MCF-7 breast cancer cells and CEM T-cell leukemia cells were determined using a procedure similar to that described by C. R. Wagner, et al. Cancer Research, 1997, 57, 2341-2345.

[3] = tested on: MCF-7 breast cancer cells; assay: Test G: activity against MCF-7 breast cancer cells; format: cell-based
Description: as §1

HIV-1 = assay: Test A: antiviral activity against HIV-1 isolates and laboratory strain in peripheral blood lymphocytes; format: cell-based; details: Human immunodeficiency virus 1, Lymphocyte, read-out: Mean IC50 in PBLs
Description: (§2) The antiviral activity of representative compounds of the invention was determined with matched HIV-1 isolates and a laboratory HIV-1 strain as previously described (D. L. Mayers et al., Proc. Natl. Acad. Sci., USA 1995, 92, 215-219; and C. R. Wagner et al., Bioorganic and Medicinal Chemistry Letters, 1995, 5, 1819-1824).

PBMCs = details: human
Description: as §2

half-life [1]: 0.0833 to 0.167 h
half-life (in vitro): > 48 h
Compound: O=c1[nH]c(=O)n([C@H]2C[C@H](O)[C@@H](CO)O2)cc1F [FUdR, 5-fluorodeoxyuridine, reference compound]
CC50 ([2]; T-cell): 1 nM
CC50 ([3]; Homo sapiens, MCF7): 11000 nM

Compound: Nc1nccc2c1ncn2[C@@H]1O[C@H](CO)[C@@H](O)[C@H]1O [DZA, 3-deaza adenosine, reference compound]
IC50 (HIV-1; HIV-1 isolate A012 post-AZT): 165 nM
IC50 (HIV-1; HIV-1 isolate A012 pre-AZT): 144 nM
CC80 (PBMCs): 1000 nM

Compound: COC(=O)[C@H](Cc1c[nH]c2ccccc12)NP(=O)(O)OC[C@H]1O[C@@H](n2cc(F)c(=O)[nH]c2=O)C[C@@H]1O [Compound 37, 5-fluoro-2′deoxy-5′-uridyl N-((L)-1-carbomethoxy-2-indol-3-ylethyl)phosphoramidate]
CC50 [2]: 320 nM
Half-life Cell Media 37 C: >48 h
CC50 [3]: 25 nM
